# Experimental data taken from article PMC5018213 (Journal of medicinal chemistry, 2016).
# Read-outs that look alike come from different tables or passages of the source.
# Assays:
# [1] = biological target: T1, human PCFT (Homo sapiens, UniProt Q96NT5); assay: PCFT transport competition, [3H]MTX uptake in R2/PCFT4 CHO cells; type: cell-based; details: for Ki for PCFT [3H]MTX transport inhibition, fold higher than for PMX: pH 5.5, Dixon analysis; for inhibition at 1 µM / inhibition at 10 µM: pH 5.5, read-out: Inhibition of [3H]MTX uptake
# T1 sequence (Q96NT5 1-459): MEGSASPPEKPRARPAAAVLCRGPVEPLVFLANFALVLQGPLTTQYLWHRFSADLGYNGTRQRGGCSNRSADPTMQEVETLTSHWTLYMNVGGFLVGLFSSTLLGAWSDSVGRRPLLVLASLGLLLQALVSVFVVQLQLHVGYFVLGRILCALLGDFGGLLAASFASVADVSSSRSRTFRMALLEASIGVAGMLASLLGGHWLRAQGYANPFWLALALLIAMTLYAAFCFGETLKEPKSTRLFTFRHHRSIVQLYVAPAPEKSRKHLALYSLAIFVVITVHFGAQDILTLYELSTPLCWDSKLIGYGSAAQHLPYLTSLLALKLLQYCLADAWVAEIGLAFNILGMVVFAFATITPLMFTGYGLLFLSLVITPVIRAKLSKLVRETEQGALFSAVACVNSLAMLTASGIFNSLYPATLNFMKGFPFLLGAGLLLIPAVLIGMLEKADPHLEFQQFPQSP
# [2] = test system: CHO subline engineered to express human RFC (PC43-10); assay: Proliferation assay, RFC-expressing PC43-10 CHO cells; details: PC43-10, 96 h, read-out: IC50 PC43-10 (RFC)
# [3] = test system: KB human tumor cells (express RFC, FRα, and PCFT); type: cell-based
# [4] = biological target: FRβ (D4 CHO cells) (Homo sapiens, UniProt P14207); assay: FR binding assay, [3H]folic acid competition in D4 cells; details: folic acid = 1
# [5] = biological target: T2, human GARFTase (Homo sapiens, UniProt P22102); type: biochemical; details: from Ki values, Table 2
# T2 sequence (P22102 810-1010 limits assumed): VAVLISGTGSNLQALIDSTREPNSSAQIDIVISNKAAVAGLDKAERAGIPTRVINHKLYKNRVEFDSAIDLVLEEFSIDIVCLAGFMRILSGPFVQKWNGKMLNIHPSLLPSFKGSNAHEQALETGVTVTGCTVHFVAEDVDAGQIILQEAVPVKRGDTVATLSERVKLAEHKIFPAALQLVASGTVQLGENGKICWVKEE
# [6] = biological target: FRα (RT16 CHO cells) (Homo sapiens, UniProt P15328); assay: FR binding assay, [3H]folic acid competition in RT16 cells; details: folic acid = 1
# [7] = test system: IGROV1 ovarian tumor xenografts; assay: In vivo efficacy trial with IGROV1 xenografts in SCID mice; details: folate-deficient diet
# Chain of FRβ (D4 CHO cells) (P14207 17-255): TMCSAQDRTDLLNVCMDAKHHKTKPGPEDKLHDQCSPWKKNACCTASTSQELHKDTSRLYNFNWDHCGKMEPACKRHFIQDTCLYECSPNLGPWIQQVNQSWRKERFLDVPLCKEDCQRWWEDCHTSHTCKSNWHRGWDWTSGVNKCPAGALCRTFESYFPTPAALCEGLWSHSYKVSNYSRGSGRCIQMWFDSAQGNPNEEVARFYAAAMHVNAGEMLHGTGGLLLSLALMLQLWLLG
# Chain of FRα (RT16 CHO cells) (P15328 25-257): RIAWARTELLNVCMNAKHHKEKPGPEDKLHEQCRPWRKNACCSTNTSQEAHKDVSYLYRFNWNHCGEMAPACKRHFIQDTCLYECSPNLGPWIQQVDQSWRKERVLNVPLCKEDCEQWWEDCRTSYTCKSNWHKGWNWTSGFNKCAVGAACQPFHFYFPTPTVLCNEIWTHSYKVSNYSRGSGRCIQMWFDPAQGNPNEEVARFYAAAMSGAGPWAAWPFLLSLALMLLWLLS
compound,measurement,setting,value
"CC(=O)N(CCc1cc2c(=O)[nH]c(N)nc2[nH]1)c1ccc(C(=O)N[C@@H](CCC(=O)O)C(=O)O)cc1 [Compound 6, (4-{N-[2-(2-amino-4-oxo-4,7-dihydro-3H-pyrrolo[2,3-d]pyrimidin-6-yl)ethyl]acetamido}benzoyl)-L-glutamic acid]","Ki for PCFT [3H]MTX transport inhibition, fold higher than for PMX",[1],~ 18 fold
"Nc1nc2[nH]cc(CCc3ccc(C(=O)N[C@@H](CCC(=O)O)C(=O)O)cc3)c2c(=O)[nH]1 [PMX, pemetrexed]",inhibition at 1 µM,[1],≥ 90%
same,inhibition at 10 µM,[1],≥ 90%
Nc1nc2[nH]c(CCCc3ccc(C(=O)N[C@@H](CCC(=O)O)C(=O)O)s3)cc2c(=O)[nH]1 [Compound 3],IC50,[2],101 nM
same,IC50,[3]; read-out: IC50 KB,0.26 nM
same,IC50,[3]; read-out: IC50 KB (+FA),101 nM
"Nc1nc2[nH]c(CCOc3ccc(C(=O)N[C@@H](CCC(=O)O)C(=O)O)cc3)cc2c(=O)[nH]1 [Compound 8, {4-[2-(2-amino-4-oxo-4,7-dihydro-3H-pyrrolo[2,3-d]pyrimidin-6-yl)ethoxy]benzoyl}-L-glutamic acid]","Relative binding affinity, % of the affinity for folic acid, FRβ",[4],60–110%
same,Improvement in GARFTase inhibitory potency over C (1),[5],approximately 3 fold
same,"Ki for PCFT [3H]MTX transport inhibition, fold higher than for PMX",[1],~ 7 fold
same,"Relative binding affinity, % of the affinity for folic acid, FRα",[6],60–110%
"Nc1nc2[nH]c(CCNc3ccc(C(=O)N[C@@H](CCC(=O)O)C(=O)O)cc3)cc2c(=O)[nH]1 [Compound 4, (4-{[2-(2-Amino-4-oxo-4,7-dihydro-3H-pyrrolo[2,3-d]pyrimidin-6-yl)ethyl]amino}benzoyl)-L-glutamic acid]","Relative binding affinity, % of the affinity for folic acid, FRβ",[4],60–110%
same,T-C (tumor growth delay),[7]; 384 mg/kg total dose,9 days
same,log10 kill,[7]; 384 mg/kg total dose,1.4
same,Highest non-toxic total dose,[7]; Q3dx4 iv,600 mg/kg
same,Body weight loss (nadir),"[7]; during treatment, reversible",17.0–17.3%
same,Improvement in GARFTase inhibitory potency over C (1),[5],approximately 3 fold
same,"Relative binding affinity, % of the affinity for folic acid, FRα",[6],60–110%
"Nc1nc2[nH]c(CCSc3ccc(C(=O)N[C@@H](CCC(=O)O)C(=O)O)cc3)cc2c(=O)[nH]1 [Compound 9, (4-{[2-(2-amino-4-oxo-4,7-dihydro-3H-pyrrolo[2,3-d]pyrimidin-6-yl)ethyl]thio}benzoyl)-L-glutamic acid]","Relative binding affinity, % of the affinity for folic acid, FRβ",[4],60–110%
same,"Relative binding affinity, % of the affinity for folic acid, FRα",[6],60–110%
Nc1nc2[nH]c(CCCc3ccc(C(=O)N[C@@H](CCC(=O)O)C(=O)O)cc3)cc2c(=O)[nH]1 [Compound 1],inhibition at 1 µM,[1],30 to 60%
same,inhibition at 10 µM,[1],80 to 90%
same,IC50,[2],649 nM
